Data: patent US11076597B2, “High stress resistant plant growth regulator and preparation method and use thereof” (SHANGHAI INSTITUTES FOR BIOLOGICAL SCIENCES, CHINESE …, priority 2015, dated 2021)
Entries after “also recorded” stand apart in the source; their conditions may differ. Each block holds one molecule with its values, some of them ahead of it.

Key:
[1] = molecular target: T1, PYL2 receptor-HAB1 protein phosphatase complex (Arabidopsis thaliana, UniProt O80992); assay: AlphaScreen assay, PYL2 receptor binding to HAB1; assay type: biochemical; conditions: fraction of the EC50 of ABA; FIG. 2c, 2e-2g
T1 construct: made in house; host or cells: E. coli BL21 (DE3)
T1 sequence (O80992 14-188): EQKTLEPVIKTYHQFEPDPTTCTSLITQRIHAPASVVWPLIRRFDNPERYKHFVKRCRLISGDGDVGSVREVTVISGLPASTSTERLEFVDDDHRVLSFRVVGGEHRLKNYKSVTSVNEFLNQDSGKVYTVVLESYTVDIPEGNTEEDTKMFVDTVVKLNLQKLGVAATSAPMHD
T1 sequence (Q9CAJ0 172-511 partner limits assumed): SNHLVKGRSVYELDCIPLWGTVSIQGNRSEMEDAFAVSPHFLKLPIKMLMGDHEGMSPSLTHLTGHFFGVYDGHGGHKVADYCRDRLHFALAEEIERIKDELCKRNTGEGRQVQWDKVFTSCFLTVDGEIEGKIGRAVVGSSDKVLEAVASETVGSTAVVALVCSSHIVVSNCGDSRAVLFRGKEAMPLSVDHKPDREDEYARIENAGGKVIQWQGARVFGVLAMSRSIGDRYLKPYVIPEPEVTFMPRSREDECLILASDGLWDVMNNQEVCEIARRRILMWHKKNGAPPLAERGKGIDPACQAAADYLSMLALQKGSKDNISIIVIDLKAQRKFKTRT
Experimental: The AlphaScreen kit (available from Perkin Elmer) was used, and the method was as follows: a 10× buffer (50 mM MOPS, pH 7.4, 50 mM NaF, 50 mM CHAPS, 0.1 mg/ml bovine serum albumin) diluted at 1:10, each of 100 nM HAB1 with Biotin tag sequence and PYR1/PYL1/PYL2/PYL7/GmPYL6/OsPYL2 protein with dual tags of 6×His and SUMO sequences, corresponding concentrations of (+)-ABA/0224/0304/0706/0708/0713/0715/0428/NC0F4, and 5 μg/ml donor beads and acceptor beads (available from Perkin Elmer) were contained in 150 μl of experimental system. After incubating for 1.5 hours at room temperature in the dark, it was placed into an Envision Plate Reader (available from Perkin Elmer) under the programmed AlphaScreen procedure for readings.
AlphaScreen technology was used to test the ability of the compounds of the present invention to promote PYL receptor binding to PP2C protein phosphatase (HAB1).

soybean = assay: Soil drought experiment, soybean; assay type: in vivo
Experimental: Soybean, cotton and wheat for leaf transpiration experiments were used simultaneously for soil drought experiments, each pot was filled with the same weight of soil to reduce experimental error. All the soybean plants were subjected to a long-day culture at 26° C. 14 days after sowing, watering was stopped and the plants with the consistent growth condition were selected for drought treatment. At the start of the drought, a solution containing 0.1% Tween-20 and 20 μM (+)-ABA/0224/0304 or 0.1% Tween-20 and 0.05% DMSO (control) was sprayed onto the leaf surface once with a spray amount of 4 ml solution/pot. Meanwhile, the position of the pot was changed and re-watered 6 days after the drought, and the photos were taken 1 day after re-watering. The drought experiment of cotton was similar to that of soybeans, watering was stopped 25 days after sowing, the plants with the consistent growth condition were selected for drought treatment. At the start of the drought, a solution containing 0.1% Tween-20 and 20 μM (+)-ABA/0224 or 0.1% Tween-20 and 0.05% DMSO (control) was sprayed onto the leaf surface once with a spray amount of 4 ml solution/pot, and then sprayed once every 3 days. Meanwhile, the position of the pot was changed and re-watered 6 days after the drought, and the photos were taken before re-watering and 1 day after re-watering. In the drought experiment of wheat, the wheat with the consistent growth condition 16 days after sowing was selected for the drought treatment, at the start of the drought, a solution with 0.1% Tween-20 and 100 μM (+)-ABA/0224 or 0.1% Tween-20 and 0.05% DMSO (control) was sprayed once, and then sprayed once every 3 days with a spray amount of 4 ml/pot. Meanwhile, the position of the pot was changed and the photos were taken 6 days after the drought.
Soil drought experiments used for compound 0428 on soybean and maize were similar to that used for compound 0224 on soybeans, with only one plant contained in each pot. All soybean plants were long-day cultured at 26° C. […]

[2] = 20 μM sprayed once, re-watering after 6 days of drought, FIG. 8

EC50 value with PYL2 receptor-HAB1 complex as fraction of that of ABA [1]: about ⅛
Structure (SMILES): CCCN1C(=O)OCc2cc(NS(=O)(=O)Cc3c(F)c(F)c(C)c(F)c3F)ccc21 [Compound 0428]
growth after drought and re-watering (soybean; 50 μM sprayed once a day for two days, 9 days of drought, FIG. 14a): significantly better growth after re-watering than that in the DMSO-sprayed control group

EC50 value with PYL2 receptor-HAB1 complex as fraction of that of ABA [1]: ⅕-⅛
Structure (SMILES): Cc1c(F)c(F)c(CS(=O)(=O)Nc2ccc3c(c2)C(C)OC(=O)N3CCCF)c(F)c1F (centres unmarked) [Compound 0715]

The remaining lines, values behind:

Structure (SMILES): CCCN1C(=O)OC(C)c2cc(NS(=O)(=O)Cc3c(F)c(F)c(C)c(F)c3F)ccc21 (centres unmarked) [Compound 0224]
EC50 value with PYL2 receptor-HAB1 complex as fraction of that of ABA [1]: 1/29 | growth after drought and re-watering (soybean; [2]): significantly better than that of the control group (DMSO) or that of the soybean treated with same concentration of ABA; also recorded: significantly better growth after re-watering than that in the DMSO-sprayed control group and the plants sprayed with the same concentration of ABA

Structure (SMILES): CCCN1C(=O)OC(C)(C)c2cc(NS(=O)(=O)Cc3c(F)c(F)c(C)c(F)c3F)ccc21 [Compound 0304]
EC50 value with PYL2 receptor-HAB1 complex as fraction of that of ABA [1]: 1/15 | growth after drought and re-watering (soybean; [2]): significantly better than that of the control group (DMSO) or that of the soybean treated with same concentration of ABA; also recorded: significantly better growth after re-watering than that in the DMSO-sprayed control group and the plants sprayed with the same concentration of ABA

Structure (SMILES): CCN1C(=O)OC(C)c2cc(NS(=O)(=O)Cc3c(F)c(F)c(C)c(F)c3F)ccc21 (centres unmarked) [Compound 0706]
EC50 value with PYL2 receptor-HAB1 complex as fraction of that of ABA [1]: ⅕-⅛
